Data on 22 compounds can be found in patent US20250340574A1, “MODULATORS OF CYSTIC FIBROSIS TRANSMEMBRANE CONDUCTANCE REGULATOR” (Vertex Pharmaceuticals Incorporated, priority 2022, published 2025).

Like-named read-outs stand apart in the source and are kept apart here.

For this assay, the target named is T1, CFTR (F508del/MF-HBE cells) (Homo sapiens, UniProt P13569, DEL508-508).
T1 construct: human bronchial epithelial (HBE) cells derived from CF subjects heterozygous for F508del and a minimal function CFTR mutation (F508del/MF-HBE); endogenous in cells; host or cells: Primary human bronchial epithelial cells from CF subjects (F508del/MF genotype), differentiated at an air-liquid interface
In words: Ussing chamber assay of CFTR-mediated short-circuit currents, Assay C (0.026 μM to 25 μM, 6 concentrations). In kind it is cell-based. The following applies: with 33 nM potentiator and 18 μM Tezacaftor, 20% human serum; for Emax: read-out: C Max activity (%). The protocol: Ussing chamber experiments were performed using human bronchial epithelial (HBE) cells derived from CF subjects heterozygous for F508del and a minimal function CFTR mutation (F508del/MF-HBE) and cultured as previously described (Neuberger T, Burton B, Clark H, Van Goor F Methods Mol Biol 2011:741:39-54). After four days the apical media was removed, and the cells were grown at an air liquid interface for >14 days prior to use.
To isolate the CFTR-mediated short-circuit (ISC) current, F508del/MF-HBE grown on Costar® Snapwell™ cell culture inserts were mounted in an Ussing chamber and the transepithelial ISC was measured under voltage-clamp recording conditions (Vhold=0 mV) at 37° C. The basolateral solution contained (in mM) 145 NaCl, 0.83 K2HPO4, 3.3 KH2PO4, 1.2 MgCl2, 1.2 CaCl2, 10 Glucose, 10 HEPES (pH adjusted to 7.4 with NaOH) and the apical solution contained (in mM) 145 NaGluconate, 1.2 MgCl2, 1.2 CaCl2, 10 glucose, 10 HEPES (pH adjusted to 7.4 with NaOH) and 30 μM amiloride to block the epithelial sodium channel. Forskolin (20 μM) was added to the apical surface to activate CFTR, followed by apical addition of a CFTR inhibitor cocktail consisting of BPO, GlyH-101, and CFTR inhibitor 172 (each at 20 μM final assay concentration) to specifically isolate CFTR currents. The CFTR-mediated ISC (μA/cm^2) for each condition was determined from the peak forskolin response to the steady-state current following inhibition.
The activity of the CFTR corrector compounds on the CFTR-mediated ISC was determined in Ussing chamber studies as described above. The F508del/MF-HBE cell cultures were either incubated with the corrector compounds at a range of concentrations in combination with 33 nM (6R,12R)-17-amino-12-methyl-6,15-bis(trifluoromethyl)-13,19-dioxa-3,4,18-triazatricyclo[12.3.1.12,5]nonadeca-1(18),2,4,14,16-pentaen-6-ol and 18 μM Tezacaftor or were incubated with the corrector compounds at a single fixed concentration of 1 μM in combination with 44 nM (6R,12R)-17-amino-12-methyl-6,15-bis(trifluoromethyl)-13,19-dioxa-3,4,18-triazatricyclo[12.3.1.12,5]nonadeca-1(18),2,4,14,16-pentaen-6-ol and 18 μM Tezacaftor for 18-24 hours at 37° C. and in the presence of 20% human serum. The concentration of corrector compounds with 44 nM or 33 nM (6R,12R)-17-amino-12-methyl-6,15-bis(trifluoromethyl)-13,19-dioxa-3,4,18-triazatricyclo[12.3.1.12,5]nonadeca-1(18),2,4,14,16-pentaen-6-ol and 18 μM Tezacaftor during the 18-24 hours incubations was kept constant throughout the Ussing chamber measurement of the CFTR-mediated ISC to ensure compounds were present throughout the entire experiment. The efficacy and potency of the putative F508del correctors was compared to that of the known Vertex corrector, (14S)-8-[3-(2-{Dispiro[2.0.2.1]heptan-7-yl}ethoxy)-1H-pyrazol-1-yl]-12,12-dimethyl-2λ^6-thia-3,9,11,18,23-pentaazatetracyclo[17.3.1.111,14.05,10]tetracosa-1(22),5,7,9,19(23),20-hexaene-2,2,4-trione, in combination with 18 μM Tezacaftor and 1 μM Ivacaftor.
• Assay A: 0.1 μM to 25 μM, 6 concentrations • Assay B: 0.00001 μM to 25 μM, 12 concentrations • Assay C: 0.026 μM to 25 μM, 6 concentrations • Assay D: Activity at single concentration of 1 μM

T1 sequence (P13569 with tags, fused parts or gaps DEL508-508): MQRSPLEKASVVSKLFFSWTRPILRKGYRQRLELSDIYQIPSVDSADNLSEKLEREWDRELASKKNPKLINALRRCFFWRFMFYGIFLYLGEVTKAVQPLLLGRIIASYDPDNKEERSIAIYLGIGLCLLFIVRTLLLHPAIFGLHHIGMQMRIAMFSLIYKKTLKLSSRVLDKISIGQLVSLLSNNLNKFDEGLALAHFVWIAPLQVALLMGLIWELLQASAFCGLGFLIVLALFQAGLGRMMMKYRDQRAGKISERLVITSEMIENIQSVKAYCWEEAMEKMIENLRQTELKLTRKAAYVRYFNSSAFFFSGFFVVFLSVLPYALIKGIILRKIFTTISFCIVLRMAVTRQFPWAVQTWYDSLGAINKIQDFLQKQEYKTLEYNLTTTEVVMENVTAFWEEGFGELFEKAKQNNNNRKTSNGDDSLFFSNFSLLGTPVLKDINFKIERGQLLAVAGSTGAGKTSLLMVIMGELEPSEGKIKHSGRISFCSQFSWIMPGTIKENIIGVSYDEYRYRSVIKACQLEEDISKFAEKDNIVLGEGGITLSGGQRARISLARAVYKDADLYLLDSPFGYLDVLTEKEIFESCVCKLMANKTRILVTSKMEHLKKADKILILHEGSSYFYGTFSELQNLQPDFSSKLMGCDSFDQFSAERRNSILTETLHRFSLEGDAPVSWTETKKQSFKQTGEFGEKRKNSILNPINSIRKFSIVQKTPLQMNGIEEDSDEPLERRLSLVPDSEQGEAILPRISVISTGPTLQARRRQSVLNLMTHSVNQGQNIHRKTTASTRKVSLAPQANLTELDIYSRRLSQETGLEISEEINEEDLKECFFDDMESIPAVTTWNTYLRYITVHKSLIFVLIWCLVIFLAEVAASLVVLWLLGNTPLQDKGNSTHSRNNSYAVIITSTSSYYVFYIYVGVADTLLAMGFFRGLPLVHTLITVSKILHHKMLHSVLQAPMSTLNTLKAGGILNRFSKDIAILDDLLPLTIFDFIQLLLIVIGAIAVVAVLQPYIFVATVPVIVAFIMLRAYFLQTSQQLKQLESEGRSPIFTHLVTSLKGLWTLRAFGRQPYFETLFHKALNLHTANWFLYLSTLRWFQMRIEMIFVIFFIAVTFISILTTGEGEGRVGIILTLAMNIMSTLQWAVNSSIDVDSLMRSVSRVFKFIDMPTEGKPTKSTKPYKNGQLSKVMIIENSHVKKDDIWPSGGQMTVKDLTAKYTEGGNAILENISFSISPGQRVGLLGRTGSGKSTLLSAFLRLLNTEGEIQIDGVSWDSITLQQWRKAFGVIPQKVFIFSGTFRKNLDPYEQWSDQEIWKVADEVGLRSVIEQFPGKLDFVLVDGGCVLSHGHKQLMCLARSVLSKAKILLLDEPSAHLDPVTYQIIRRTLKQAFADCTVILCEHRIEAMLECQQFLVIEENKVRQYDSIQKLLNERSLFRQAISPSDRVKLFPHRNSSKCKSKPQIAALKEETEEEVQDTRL

Consider `C=C(C)c1cc2nc(CN3C(=O)c4cccc(c4)S(=O)(=O)Nc4nc(cc(-c5c(C)cccc5C)n4)OC[C@H]3CC3(C)CC3)cnc2o1` [Compound I-255, (11R)-6-(2,6-dimethylphenyl)-12-[(6-isopropenylfuro[2,3-b]pyrazin-2-yl)methyl]-11-[(1-methylcyclopropyl)methyl]-2,2-dioxo-9-oxa-2λ^6-thia-3,5,12,19-tetrazatricyclo[12.3.1.14,8]nonadeca-1(18),4(19),5,7,14,16-hexaen-13-one], for which the EC50 – broadly, the midpoint of the concentration-response curve – lay within 1 to 3 µM. Where the note is “18-24 hours”, the Emax is more than 60%.
With `Cc1cccc(C)c1-c1cc2nc(n1)NS(=O)(=O)c1cccc(c1)C(=O)N(Cc1cnc3oc(C(C)(C)C)cc3n1)[C@H](C[C@@H]1CCCCO1)CO2` [IV-85], the EC50 fell in the range of 1 to 3 µM and the Emax was more than 60%.
Taken in the same sequence, the figures for `Cc1cccc(CC(C)C)c1-c1nc2nc(c1C)OC[C@@H](COC(C)C)N(Cc1cnc3cc(C(C)(C)C(F)(F)F)n(C)c3n1)C(=O)c1cccc(c1)S(=O)(=O)N2` [IV-101] were less than 1 µM and more than 60%.
Turning to `Cc1cccc(C(C)C)c1-c1nc2nc(c1C)OC[C@@H](CC(C)(C)C)N(Cc1cnc3cc(C(C)C)n(C)c3n1)C(=O)c1cccc(c1)S(=O)(=O)N2` (atropisomer, axis not shown) [Compound I-179], the EC50 is 3 to 30 µM. Besides, the Emax (18-24 hours) was more than 60%.
Taken in the same sequence, the figures for `Cc1cccc(CC(C)C)c1-c1nc2nc(c1C)OC[C@@H](CC(C)(C)C)N(Cc1cnc3oc(C4(C)CC4)cc3n1)C(=O)c1cccc(c1)S(=O)(=O)N2` (atropisomer, axis not shown) [Compound I-257] were 1 to 3 µM and more than 60%.
In the same order, the values of `Cc1cccc(C)c1-c1cc2nc(n1)NS(=O)(=O)c1cccc(c1)C(=O)N(Cc1nc3cc(C4CC4)oc3cc1F)[C@H](CC13CC(C1)C3)CO2` [Compound I-208] are 1 to 3 µM and more than 60%.
In the same order, the values of `Cc1cccc(C)c1-c1cc2nc(n1)NS(=O)(=O)c1cccc(c1)C(=O)N(Cc1ncc3oc(C(C)(C)C)cc3n1)[C@H](CC13CC(C1)C3)CO2` [Compound I-251] are 1 to 3 µM and more than 60%.
With `Cc1cccc(CC(C)C)c1-c1nc2nc(c1C)OC[C@@H](COC(F)(F)F)N(Cc1cnc3cc(C4CC4)n(C)c3n1)C(=O)c1cccc(c1)S(=O)(=O)N2` [IV-69], the half-maximal effective concentration (EC50) fell in the range of 1 to 3 µM and the Emax was more than 60%.
Taken in the same sequence, the figures for `Cc1cccc(CC(C)C)c1-c1nc2nc(c1C)OC[C@@H](CC(C)(C)C)N(Cc1ncc3cc(C4CC4)n(C)c3n1)C(=O)c1cccc(c1)S(=O)(=O)N2` (atropisomer, axis not shown) [IV-25] were 1 to 3 µM and more than 60%.
For `Cc1cccc(CC(C)C)c1-c1nc2nc(c1C)OC[C@@H](CC13CC(C1)C3)N(Cc1cnc3oc(C(C)(C)C)cc3n1)C(=O)c1cccc(c1)S(=O)(=O)N2` [Compound I-247], the EC50 is less than 1 µM. Also, for the setting “18-24 hours”, the Emax was more than 60%.
On to `Cc1cccc(C)c1-c1nc2nc(c1C)OC[C@@H](C[C@@H]1CCCO1)N(Cc1cnc3cc(C4(C(F)(F)F)CC4)n(C)c3n1)C(=O)c1cccc(c1)S(=O)(=O)N2` [IV-105], for which the EC50 is less than 1 µM and the Emax was more than 60%.
For the compound `Cc1cccc(OC(C)C)c1-c1nc2nc(c1C)OC[C@@H](CC(C)(C)C)N(Cc1cnc3cc(C(C)(C)C)n(C)c3n1)C(=O)c1cccc(c1)S(=O)(=O)N2` (atropisomer, axis not shown) [Compound I-260], the EC50 is less than 1 µM. The Emax (18-24 hours) was more than 60%.
As for `Cc1cccc(C)c1-c1cc2nc(n1)NS(=O)(=O)c1cccc(c1)C(=O)N(Cc1cnc3oc(C(C)(C)CO)cc3n1)[C@H](CC1(C)CC1)CO2` [Compound I-112], the EC50 was 3 to 30 µM. Further, the Emax (18-24 hours) was more than 60%.
For `Cc1cccc(C)c1-c1cc2nc(n1)NS(=O)(=O)c1cccc(c1)C(=O)N(Cc1cnc3cc(C(C)(C)C)n(C)c3n1)[C@@H](CC1CC(F)(F)C1)CO2` (single isomer, unassigned) [IV-55, 12-[(6-tert-Butyl-5-methyl-pyrrolo[2,3-b]pyrazin-3-yl)methyl]-11-[(3,3-difluorocyclobutyl)methyl]-6-(2,6-dimethylphenyl)-2,2-dioxo-9-oxa-2λ^6-thia-3,5,12,19-tetrazatricyclo[12.3.1.14,8]nonadeca-1(18),4(19),5,7,14,16-hexaen-13-one], the EC50 is less than 1 µM and the Emax was more than 60%.
For the compound `Cc1cccc(CC2CCCCC2)c1-c1nc2nc(c1C)OC[C@@H](CC(C)(C)C)N(Cc1cnc3cc(C(C)C)n(C)c3n1)C(=O)c1cccc(c1)S(=O)(=O)N2` (atropisomer, axis not shown) [Compound I-178], the EC50 was less than 1 µM. Further, for the setting “18-24 hours”, the Emax was more than 60%.
With `Cc1cccc(C)c1-c1cc2nc(n1)NS(=O)(=O)c1cccc(c1)C(=O)N(Cc1cnc3oc(C4(C)CC4)cc3n1)[C@H](C[C@@H]1CCCCO1)CO2` [IV-87], the EC50 was in the range of 3 to 30 µM and the Emax was more than 60%.
In the same order, the values of `COCc1c(C(C)(C)C)n(C)c2nc(CN3C(=O)c4cccc(c4)S(=O)(=O)Nc4nc(cc(-c5c(C)cccc5C)n4)OC[C@H]3CC34CC(C3)C4)cnc12` [IV-89, (11R)-11-(1-bicyclo[1.1.1]pentanylmethyl)-12-[[6-tert-butyl-7-(methoxymethyl)-5-methyl-pyrrolo[2,3-b]pyrazin-3-yl]methyl]-6-(2,6-dimethylphenyl)-2,2-dioxo-9-oxa-2λ^6-thia-3,5,12,19-tetrazatricyclo[12.3.1.14,8]nonadeca-1(18),4(19),5,7,14,16-hexaen-13-one] are less than 1 µM and more than 60%.
Regarding `Cc1cccc(CC(C)(C)C)c1-c1nc2nc(c1C)OC[C@@H](CC(C)(C)C)N(Cc1cnc3oc(C(C)(C)C)cc3n1)C(=O)c1cccc(c1)S(=O)(=O)N2` (atropisomer, axis not shown) [Compound I-245], the EC50 is less than 1 µM. Also, the Emax (18-24 hours) was more than 60%.
Turning to `Cc1cccc(C)c1-c1nc2nc(c1C)OC[C@@H](C[C@H]1CCCO1)N(Cc1cnc3cc(C4(C(F)(F)F)CC4)n(C)c3n1)C(=O)c1cccc(c1)S(=O)(=O)N2` [IV-106], the EC50 is less than 1 µM and the Emax is more than 60%.
As to `Cc1cccc(C)c1-c1cc2nc(n1)NS(=O)(=O)c1cccc(c1)C(=O)N(Cc1cnc3cc(C(C)(C)C)n(C)c3n1)[C@H](C1CCCO1)CO2` (single isomer, unassigned) [IV-97], the EC50 was less than 1 µM.
Consider `Cc1cccc(C)c1-c1cc2nc(n1)NS(=O)(=O)c1cccc(c1)C(=O)N(Cc1cnc3oc(C(C)(C)C)cc3n1)[C@H](COC(C)C)CO2` [Compound I-174], for which the EC50 is 3 to 30 µM. The Emax (18-24 hours) was more than 60%.
Regarding `Cc1cccc(C)c1-c1cc2nc(n1)NS(=O)(=O)c1cccc(c1)C(=O)N(Cc1cnc3oc([C@H](C)CO)cc3n1)[C@H](CC1(C)CC1)CO2` [IV-52, (11R)-6-(2,6-Dimethylphenyl)-12-[[6-[(1R)-2-hydroxy-1-methyl-ethyl]furo[2,3-b]pyrazin-2-yl]methyl]-11-[(1-methylcyclopropyl)methyl]-2,2-dioxo-9-oxa-2λ^6-thia-3,5,12,19-tetrazatricyclo[12.3.1.14,8]nonadeca-1(18),4(19),5,7,14,16-hexaen-13-one], the EC50 fell in the range of 3 to 30 µM and the Emax was more than 60%.
